Test results: patent US7626044B2, “Triptolide derivatives and their uses” (priority 2002, dated 2009)
Converted amounts (≈) assume the structure as drawn. “And” between values parts separate entries of the source, which are not always exact repeats. Identical values can stand only once.

How the values were obtained:
lymphocyte = assay: MTT cytotoxic assay; assay type: cell-based, mouse; conditions: mouse spleen cells, 48 hours, MTT
Procedure: Mice were sacrificed by cervical dislocation, and spleens were collected under sterile conditions then teased through a nylon mesh. Erythrocytes were lysed. Cells were washed and resuspended at 5×10^6/ml in RPMI-1640 media supplemented with 10% FBS.
For one 96 well plate assay, 90 μl of cells, 45 μl of sample and 45 μl of RPMI-1640 media with 10% FBS were added into each well with the final volume 180 μl. The negative control wells (containing 90 μl of RPMI-1640 media with 10% FBS and 90 pt of cells), blank control (180 μl of RPMI-1640 media with 10% FBS) were also performed. Incubate plate for 48 hours at 37° C., 5% CO2 in a humidified incubator. 18 μl of MTT solution (5 mg/ml) was added for 6-7 h.
90 μl of MTT lysis solution was added to each well followed by a further incubation at 37° C. for 6-7 h. And the absorbance was measured at 570 nm using a plate reader.

B lymphocyte = assay: LPS induced B-lymphocyte proliferation ([3H]thymidine); assay type: cell-based, mouse
Procedure: Mice were sacrificed by cervical dislocation, and spleens were collected under sterile conditions then teased through a nylon mesh. Erythrocytes were lysed. Cells were washed and resuspended at 5×10^6/ml in RPMI-1640 media containing 10% FBS. For one 96 well plate assay, 100 pt of cells, 50 μl of sample and 50 μl of ConA/LPS were added into each well with the final volume 200 μl. The control wells were set up with 50 μl of RPMI-1640 media instead of ConA/LPS.
Plates were incubated for 48 h (ConA) or 60 h (LPS), respectively, at 37° C., 5% CO2 in a humidified incubator. In the last 8 h of incubation, 25 μl (1.9×10^10 Bq) of [^3H]thymidine was added. After plates were incubated for 48 h, the plates (ConA) were stored at −20° C., then after another 12 h, the plates (LPS) were stored at −20° C.
(§1) At the end of incubation, pulsed cells were harvested on a glass filter using a cell harvester ([…]96®, TOMTEC) and allowed to dry. Incorporation of radioactive thymidine was determined by using liquid Scintillation and Luminescence Counters (MicroBeta Trilux®, PerkinElmer).

[1] = test system: splenocytes (C57BL/6 responder, Balb/c stimulator); assay: MLR response of C57BL/6 against Balb/c; assay type: cell-based, mouse
Procedure: C57BL/6 and Balb/c mice were sacrificed by cervical dislocation, and spleens were collected under sterile conditions then teased through a nylon mesh. Erythrocytes were lysed. Cells were washed and resuspended at 6×10^6/ml in RPMI-1640 media with 10% FBS.
Splenocytes from responder (C57BL/6) were mixed with stimulator (Balb/c), which was pretreated with ^60Co Gamma Ray irradiation (3000 rads).
Stimulator and responder cells were cultured in a 200 μl volume in 96-well plate in the presence of drugs or medium, at 37° C., 5% CO2 in a humidified incubator, for 3, 4, and 5 days, respectively. In the last 8 h of incubation, cells were treated with 25 μl (3.8×10^10 Bq) of [^3H]Thymidine.
as §1

[2] = test system: ConA-stimulated lymphocytes; assay: IL-2 production from ConA-stimulated lymphocytes (ELISA); assay type: cell-based, mouse; conditions: without drug 3724.4
Procedure: Mice were sacrificed by cervical dislocation, and spleens were collected under sterile conditions then teased through a nylon mesh. Erythrocytes were lysed. Cells were washed and resuspended at 5×10^6/ml in RPMI-1640 media with 10% FBS.
1 ml of spleen cells were treated with or without ConA (5 μg/ml) or Sac (1:10000) and in the presence or absence of drugs in a final volume of 2 ml.
After 24 h culture at 37° C., 5% CO2 in a humidified incubator, cell-free supernatant was collected and frozen at −20° C. for ELISA.
IL-2, IL-12p40, IL-10, and IFN-γ levels were determined by Enzyme Linked Immuno Sorbance Assay (ELISA). TMB was taken as the enzyme substrate. The absorbance was measured at 450/570 nm by BioRad microplate reader. The amount of cytokines in sample supernatants were calculated based on standard curve using standard murine cytokines (rIL-2, rIL-12, rIL-10, and rIFN-γ).

murine T lymphocytes = assay: Induction of T lymphocyte apoptosis (PI staining, FACS); assay type: cell-based, mouse
Procedure: (1) The Tuf-tainer (non-adherent to cells) was pretreated with culture medium for 2 h;
(2) As that described in proliferation assay, Balb/c mice were sacrificed and their spleens were removed aseptically. A single cell suspension was prepared and resuspended in RPMI-1640 media at 5×10^6/ml.
(3) Cells were added to 5 μg/ml ConA or medium;
(4) The cells were cultured in 5% CO2 incubator at 37° C. for 24-96 h;
(5) Cells were collected and washed with PBS, centrifugated at 400 g for 10 min at 4° C.;
(6) The collected cells were shaken 10 s violently and 1 ml ice-cold 70% ethanol was added dropwise, capped and fixed overnight at […].;
(7) The cells were centrifuged at 3000 rpm for 5 min and the ethanol was removed; Incubated cells with 1 ml PI staining buffer at room temperature more than 30 min; FACs analysis was performed with 24 h.

[3] = test system: P-388 (murine lymphoma cell); assay: Tumor cell proliferation, P-388; assay type: cell-based; conditions: read-out: Inhibitory effect on tumor cell proliferation IC50

In the case of `CC(C)[C@]12O[C@H]1[C@@H]1O[C@]13[C@]1(O[C@H]1C[C@@]1(O)C4=C(CC[C@]31C)C(=O)OC4)[C@@H]2O` [LLDT-8, (5R)-5-hydroxytriptolide], the “IC50 (concentration required to reduce the viability of cells by 50%)” value (lymphocyte) is reported as 0.0782 µg/mL, the IC50 (lymphocyte; read-out: IC50 (concentration required to reduce the viability of cells by 50%)) is reported as 208 nM and 200 nM and the “ED50 for inhibiting B lymphocyte proliferation induced by LPS” value (B lymphocyte; 60 h) is reported as 0.0598 µg/mL. The EC50 (B lymphocyte; 60 h, read-out: ED50 for inhibiting B lymphocyte proliferation induced by LPS) was 159 nM, the “more potent inhibitory activity than CsA (B lymphocyte proliferation)” value (B lymphocyte; compared with CsA) was “about 4.3 fold” and the “ED50 (MLR response)” value ([1]; C57BL/6 against Balb/c) was 0.0006 µg/mL (≈ 1.59 nM). The EC50 ([1]; C57BL/6 against Balb/c, read-out: ED50 (MLR response)) was 1.6 nM, the “potency higher than CsA (MLR)” value ([1]; compared with CsA) was “about 2.5 fold” and the “IL-2 production by lymphocytes stimulated with ConA, Mean Value” (shortened to “IL-2 production”) ([2]; 0.3 nM) was 3857.2 pg/mL. The “IL-2 production” value ([2]; 3 nM) was 3494.2 pg/mL, the “IL-2 production” value ([2]; 30 nM) was 2872.7 pg/mL and the “CD4+ and CD8+ T lymphocytes percentage” value (murine T lymphocytes) was “reduced CD4^+ and CD8^+ T lymphocytes percentage”. For the same compound, the “apoptosis of murine T lymphocytes” value (murine T lymphocytes; at concentration below or near the IC50 for lymphocyte cytotoxicity) was “induced the apoptosis of murine T lymphocytes” and the IC50 [3] was 80 nM.
